The values below come from US20100016275A1, “NOVEL COMPOUND 395” (priority 2008, published 2010).

For this assay, the target named is T1, human CXCR2 receptor (Homo sapiens, UniProt P25025).
T1 construct: expressed in transfected cells; host or cells: HEK293, stably transfected geneticin-resistant clones, vector RcCMV; membranes purified by sucrose gradient
T1 sequence (P25025 1-360): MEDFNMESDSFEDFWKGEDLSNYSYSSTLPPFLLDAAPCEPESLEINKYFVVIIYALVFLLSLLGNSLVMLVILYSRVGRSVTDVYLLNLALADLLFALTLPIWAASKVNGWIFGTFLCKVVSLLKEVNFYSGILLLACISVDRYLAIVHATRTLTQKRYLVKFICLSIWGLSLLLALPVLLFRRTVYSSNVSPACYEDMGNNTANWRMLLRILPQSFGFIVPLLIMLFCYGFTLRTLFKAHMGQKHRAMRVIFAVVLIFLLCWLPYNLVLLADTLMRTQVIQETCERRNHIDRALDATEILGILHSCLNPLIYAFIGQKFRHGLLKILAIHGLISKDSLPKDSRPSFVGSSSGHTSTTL
As to the kind of experiment: Potency (pIC50) ligand binding assay, inhibition of [125I]IL-8 binding. Particulars: for IC50: inhibition of specific [125I]IL-8 (0.06 nM) binding, membranes of HEK293 cells transfected with human recombinant CXCR2. The method, then: Potency (pIC50)—Ligand Binding Assay
The potency of antagonists at the human CXCR2 receptor was determined in vitro by quantifying their ability to inhibit specific binding of the CXCR2 radioligand, [^125I]interleukin-8 (IL-8), from membranes of HEK293 cells transfected with the human recombinant CXCR2 receptor.
Commercially sourced materials were obtained as follows: U-bottomed 96-well plates (3799) and 225 cm^2 vented cap culture flasks (3001) from Costar, Corning, Kent, UK. Multiscreen filter plates (0.45 μm; MAHV N45 50), vacuum manifold and pump (XF54 230 50) from Millipore, Watford, UK. N-[2-hydroxyethyl]piperazine-N′-[2ethanesulphonic acid] (HEPES; H-3375), ethylene diamine-tetraacetic acid (EDTA; E1644), magnesium chloride (M-9272), gelatin (G9382), dithiothreitol (DTT; D06052), sodium chloride (S3160/63), sodium hydroxide (B6506), bacitracin (B0125), inactivated foetal calf serum (FCS; CR0848) and DMSO Fluka Chemika (41648) from Sigma, Poole, UK. MicroScint-O (6013611) Packard BioScience, Pangboume, UK. Complete protease inhibitor cocktail tablets (1836145) from Boehringer s Mannheim, GmbH, Germany. Human recombinant [^125I]IL-8 74 TBq/mmol, 0.712 MBq/ml (IM249) from Amersham, Horsham UK. All other tissue culture reagents were purchased from Invitrogen, Paisley, Scotland, UK. All other chemical reagents were analytical grade from Fisher Scientific, Loughborough, UK
HEPES-buffered salt solution pH 7.4 containing HEPES (10 mM), potassium chloride (2.7 mM), sodium chloride (137 mM), potassium hydrogen phosphate (0.4 mM), calcium chloride (1.8 mM), magnesium chloride (1 mM), gelatin (0.1% (w/v)) and bacitracin (100 μg/ml).
HEPES-buffered Tyrode's solution pH 7.4 containing HEPES (10 mM), potassium chloride (2.7 mM), sodium chloride (137 mM), potassium hydrogen phosphate (0.4 mM), glucose (11 mM).
Hypotonic buffer: 3:1 mix of water: HEPES-buffered Tyrode's solution.
HEK293 cells were transfected with human CXCR2 (EMBL L19593) cDNA, previously cloned into the eukaryotic expression vector RcCMV. Cloned cell-lines were generated from stably-transfected geneticin-resistant populations. Cells were routinely grown to approximately 80% confluence in DMEM medium containing 10% (v/v) foetal calf serum and glutamine (2 mM) in a humidified incubator at 37° C., 5% CO2. Cells were harvested from flasks using Accutase™ at 37° C. for 3 to 5 minutes and resuspended on ice in hypotonic buffer at a density of 2×10^7 cells/mL. Membranes were prepared on ice by homogenisaton using a polytron tissue homogenizer set at 22000 rpm. The membrane fraction was purified by sucrose gradient centrifugation where homogenised cells were layered onto 41% (w/v) sucrose solution then centrifuged at 140000 g for 1 hour at 4° C. The membrane fraction was harvested at the interface, diluted 4-fold with HEPES-buffered Tyrode's solution and centrifuged at 100000 g for 20 minutes at 4° C. The membrane pellet was re-suspended at 1×10^8 cell equivalents/mL in HEPES-buffered Tyrode's solution and subsequently stored in aliquots at −80° C. All buffers used for membrane preparation and storage were made in the presence of 1 mM DTT and Complete Protease Inhibitor™ cocktail tablets, made up to manufacturers instructions.
Assays were performed in HEPES-buffered salt solution in 96-well plates. [^125I]IL-8 was used at a final concentration of 0.06 nM, pre-diluted from a 9.6 nM stock. The final DMSO concentration in the assay was 1% (v/v). Test compounds were prepared by serial dilution in DMSO followed by a ten-fold dilution into HEPES-buffered salt solution to give a working solution containing compound and 10% DMSO. The control for total binding (B0) of [^125I]IL-8 was determined in the absence of compound. The control for non-specific binding (NSB) was determined by measuring [^125I]IL-8 binding in the presence of (1R)-5-[[(3 -chloro-2-fluorophenyl)methyl]thio]-7-[[2-hydroxy-1-methylethyl]amino]thiazolo[4,5-d]pyrimidin-2(3H)-one dihydrate, sodium salt at 1 μM final concentration. […]

Values joined by “and” are separate entries in the source; they are usually repeats but may differ in a detail not shown here. Identical values can stand only once.

Usually IC50 stands for the point on the concentration scale where inhibition reaches its midpoint. Take `Cc1ccc(CSc2nc(N[C@H](C)CO)cc(NS(=O)(=O)N3CCC3)n2)c(F)c1C` [Example 41]: the IC50 is 3.16 nM.

For `Cc1cccc(CSc2nc(N[C@H](C)CO)cc(NS(=O)(=O)N3CCC3)n2)c1F` [Example 40], the IC50 was 2.51 nM.

Consider `CS(=O)(=O)Nc1cc(NC(CO)CO)nc(SCc2ccccc2)n1` [Example 21], for which the IC50 was 2510 nM. For the setting “potency ratio from pIC50”, the “fold less potent than the compound of Formula (1)” value came to 398 fold and the “fold less potent than the compounds of Examples 39-42” value is listed as 316-1000 fold.

As to `C[C@@H](Nc1cc(NS(=O)(=O)N2CCC2)nc(SCc2cccc(F)c2F)n1)[C@@H](O)CO` [Example 1, N-(2-[(2,3-difluorobenzyl)thio]-6-{[(1R,2R)-2,3-dihydroxy-1-methylpropyl]amino}pyrimidin-4-yl)azetidine-1-sulfonamide], the half-inhibitory concentration (IC50) was 6.31 nM and < 10 nM.

In the case of `Cc1cccc(CSc2nc(N[C@H](C)CO)cc(NS(C)(=O)=O)n2)c1F` [Example 39], the IC50 is 3.98 nM.

On to `Cc1ccc(CSc2nc(N[C@H](C)CO)cc(NS(=O)(=O)N3CCC3)n2)c(F)c1C` [Example 42], for which the IC50 was 7.94 nM.
